From paper PMC12406203 (Journal of Medicinal Chemistry, 2025)

Tests used:
Test in all cases: KINOMEscan
Type in all cases: binding
[1] = target: T1, EGFR (Homo sapiens, UniProt P00533)
T1 construct: purchased Eurofins DiscoverX, LLC; host or cells: E. coli (T7 phage) or HEK-293

[2] = target: T2, ERK 2 (Homo sapiens, UniProt P28482)
T2 construct: purchased Eurofins DiscoverX, LLC; host or cells: E. coli (T7 phage) or HEK-293

[3] = target: T3, JAK2(JH1domain-catalytic) (Homo sapiens, UniProt O60674)
T3 construct: JAK2(JH1domain-; purchased Eurofins DiscoverX, LLC; host or cells: E. coli (T7 phage) or HEK-293
T3 sequence (O60674 849-1124 limits assumed): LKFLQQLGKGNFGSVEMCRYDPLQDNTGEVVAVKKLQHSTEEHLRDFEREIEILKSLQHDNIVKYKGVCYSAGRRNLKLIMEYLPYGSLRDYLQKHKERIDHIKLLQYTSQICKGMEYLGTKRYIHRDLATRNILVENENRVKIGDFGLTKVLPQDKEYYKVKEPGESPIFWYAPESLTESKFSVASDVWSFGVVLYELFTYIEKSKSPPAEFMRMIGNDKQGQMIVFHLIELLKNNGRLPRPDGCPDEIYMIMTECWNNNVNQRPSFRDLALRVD

[4] = target: T4, JNK3 (Homo sapiens, UniProt P53779)
T4 construct: purchased Eurofins DiscoverX, LLC; host or cells: E. coli (BL21-derived, T7 phage) or HEK-293
T4 sequence (P53779 whole entry): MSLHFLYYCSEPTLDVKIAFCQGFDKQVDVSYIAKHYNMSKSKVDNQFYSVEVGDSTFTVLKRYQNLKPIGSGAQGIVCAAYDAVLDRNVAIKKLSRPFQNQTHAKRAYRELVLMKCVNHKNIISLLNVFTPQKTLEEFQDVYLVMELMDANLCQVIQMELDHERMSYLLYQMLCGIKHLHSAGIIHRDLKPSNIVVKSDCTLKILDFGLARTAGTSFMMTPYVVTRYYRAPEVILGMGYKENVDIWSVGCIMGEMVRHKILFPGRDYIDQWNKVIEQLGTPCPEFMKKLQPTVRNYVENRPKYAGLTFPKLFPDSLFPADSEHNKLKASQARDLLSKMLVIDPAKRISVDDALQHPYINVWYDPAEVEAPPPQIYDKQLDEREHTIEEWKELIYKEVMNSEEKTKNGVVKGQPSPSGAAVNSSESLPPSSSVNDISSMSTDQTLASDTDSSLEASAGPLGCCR

[5] = target: T5, KIT(D816V) (Homo sapiens, UniProt P10721, D816V)
T5 construct: purchased Eurofins DiscoverX, LLC; host or cells: E. coli (BL21-derived, T7 phage) or HEK-293

[6] = target: T6, PDPK1 (Homo sapiens, UniProt O15530)
T6 construct: purchased Eurofins DiscoverX, LLC; host or cells: E. coli BL21-derived host (T7 phage) or HEK-293
T6 sequence (O15530 1-556): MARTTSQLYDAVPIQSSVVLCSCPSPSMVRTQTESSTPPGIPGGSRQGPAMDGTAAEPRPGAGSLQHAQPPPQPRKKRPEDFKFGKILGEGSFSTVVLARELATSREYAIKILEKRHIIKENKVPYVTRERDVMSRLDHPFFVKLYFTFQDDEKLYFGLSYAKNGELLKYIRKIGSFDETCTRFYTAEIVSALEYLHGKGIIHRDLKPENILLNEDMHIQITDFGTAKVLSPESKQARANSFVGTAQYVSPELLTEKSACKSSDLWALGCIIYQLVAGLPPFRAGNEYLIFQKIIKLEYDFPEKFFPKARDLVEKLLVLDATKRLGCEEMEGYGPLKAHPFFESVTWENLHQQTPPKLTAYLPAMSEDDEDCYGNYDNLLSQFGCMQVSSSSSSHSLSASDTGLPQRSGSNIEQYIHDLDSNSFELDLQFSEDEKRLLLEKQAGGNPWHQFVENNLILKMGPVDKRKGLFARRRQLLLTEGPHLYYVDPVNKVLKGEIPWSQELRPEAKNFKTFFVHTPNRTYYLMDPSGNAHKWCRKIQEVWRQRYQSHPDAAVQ

[7] = target: T7, PIK3CA (Homo sapiens, UniProt P42336)
T7 construct: purchased Eurofins DiscoverX, LLC; host or cells: E. coli BL21-derived host (T7 phage) or HEK-293
T7 sequence (P42336 whole entry): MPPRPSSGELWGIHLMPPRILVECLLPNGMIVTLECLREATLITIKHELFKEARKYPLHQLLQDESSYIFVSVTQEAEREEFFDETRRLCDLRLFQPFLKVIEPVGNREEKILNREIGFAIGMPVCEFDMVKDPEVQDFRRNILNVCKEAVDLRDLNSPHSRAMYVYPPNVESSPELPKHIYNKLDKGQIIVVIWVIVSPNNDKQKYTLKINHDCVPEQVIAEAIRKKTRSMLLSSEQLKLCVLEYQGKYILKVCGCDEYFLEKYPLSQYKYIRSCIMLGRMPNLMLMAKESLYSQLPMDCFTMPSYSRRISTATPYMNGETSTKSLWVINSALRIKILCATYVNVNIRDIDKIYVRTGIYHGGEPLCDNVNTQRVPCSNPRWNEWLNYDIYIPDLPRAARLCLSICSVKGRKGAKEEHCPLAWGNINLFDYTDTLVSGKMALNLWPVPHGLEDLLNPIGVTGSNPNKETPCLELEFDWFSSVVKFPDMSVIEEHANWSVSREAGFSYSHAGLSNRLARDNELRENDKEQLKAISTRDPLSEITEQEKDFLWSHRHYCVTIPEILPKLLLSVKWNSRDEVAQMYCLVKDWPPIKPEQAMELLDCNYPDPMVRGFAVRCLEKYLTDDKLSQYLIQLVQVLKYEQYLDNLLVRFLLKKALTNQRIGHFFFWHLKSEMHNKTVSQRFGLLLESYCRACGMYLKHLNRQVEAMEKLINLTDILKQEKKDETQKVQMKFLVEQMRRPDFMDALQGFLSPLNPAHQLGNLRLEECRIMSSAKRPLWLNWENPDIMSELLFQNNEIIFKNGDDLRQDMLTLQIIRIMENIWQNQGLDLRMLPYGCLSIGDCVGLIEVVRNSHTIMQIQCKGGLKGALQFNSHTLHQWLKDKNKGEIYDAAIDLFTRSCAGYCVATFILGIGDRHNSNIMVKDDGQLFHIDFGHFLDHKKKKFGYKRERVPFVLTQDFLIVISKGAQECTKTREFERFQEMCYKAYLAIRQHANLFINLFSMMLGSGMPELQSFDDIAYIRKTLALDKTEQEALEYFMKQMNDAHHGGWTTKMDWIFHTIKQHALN

[8] = target: T8, RSK2 (Kin.Dom.1-N-terminal) (Homo sapiens, UniProt P51812)
T8 construct: RSK2 (Kin.Dom.1-; purchased Eurofins DiscoverX, LLC; host or cells: E. coli BL21-derived host (T7 phage) or HEK-293
T8 sequence (P51812 68-327 limits assumed): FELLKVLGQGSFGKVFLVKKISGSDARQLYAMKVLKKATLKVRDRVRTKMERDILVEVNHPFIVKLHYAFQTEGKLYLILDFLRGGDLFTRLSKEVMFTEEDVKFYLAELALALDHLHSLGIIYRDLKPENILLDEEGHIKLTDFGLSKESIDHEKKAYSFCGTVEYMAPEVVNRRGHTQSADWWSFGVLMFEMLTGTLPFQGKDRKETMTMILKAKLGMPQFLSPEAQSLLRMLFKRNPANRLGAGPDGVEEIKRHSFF

[9] = target: T9, SRC (Homo sapiens, UniProt P12931)
T9 construct: purchased Eurofins DiscoverX, LLC; host or cells: E. coli BL21-derived host (T7 phage) or HEK-293
T9 sequence (P12931 whole entry): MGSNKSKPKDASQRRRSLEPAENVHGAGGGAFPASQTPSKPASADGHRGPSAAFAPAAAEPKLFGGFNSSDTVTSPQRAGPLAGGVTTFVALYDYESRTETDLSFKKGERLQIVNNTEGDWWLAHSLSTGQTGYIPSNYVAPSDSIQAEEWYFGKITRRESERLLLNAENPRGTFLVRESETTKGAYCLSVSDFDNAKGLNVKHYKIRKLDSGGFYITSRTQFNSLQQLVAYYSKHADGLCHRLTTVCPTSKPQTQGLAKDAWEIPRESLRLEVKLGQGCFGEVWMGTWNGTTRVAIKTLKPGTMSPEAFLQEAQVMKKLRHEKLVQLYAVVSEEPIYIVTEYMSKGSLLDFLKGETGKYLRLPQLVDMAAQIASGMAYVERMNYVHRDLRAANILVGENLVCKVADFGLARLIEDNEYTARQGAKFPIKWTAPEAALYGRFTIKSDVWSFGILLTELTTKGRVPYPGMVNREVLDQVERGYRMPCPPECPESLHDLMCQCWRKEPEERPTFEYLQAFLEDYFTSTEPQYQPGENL

[10] = target: T10, p38γ (Homo sapiens, UniProt P53778)
T10 construct: purchased Eurofins DiscoverX, LLC; host or cells: E. coli (BL21-derived, T7 phage) or HEK-293
T10 sequence (P53778 1-367): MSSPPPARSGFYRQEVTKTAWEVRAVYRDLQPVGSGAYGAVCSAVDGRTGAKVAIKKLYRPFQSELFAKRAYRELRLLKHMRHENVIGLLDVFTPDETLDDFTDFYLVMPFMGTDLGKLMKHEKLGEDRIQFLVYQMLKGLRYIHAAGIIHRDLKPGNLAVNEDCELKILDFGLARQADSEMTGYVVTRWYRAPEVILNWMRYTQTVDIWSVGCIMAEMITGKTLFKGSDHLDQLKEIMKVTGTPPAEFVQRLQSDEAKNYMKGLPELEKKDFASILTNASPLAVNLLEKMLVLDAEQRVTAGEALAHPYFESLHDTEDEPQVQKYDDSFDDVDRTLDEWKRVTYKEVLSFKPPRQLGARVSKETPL

[11] = target: T11, p38δ (Homo sapiens, UniProt O15264)
T11 construct: purchased Eurofins DiscoverX, LLC; host or cells: E. coli (BL21-derived, T7 phage) or HEK-293
T11 sequence (O15264 1-365): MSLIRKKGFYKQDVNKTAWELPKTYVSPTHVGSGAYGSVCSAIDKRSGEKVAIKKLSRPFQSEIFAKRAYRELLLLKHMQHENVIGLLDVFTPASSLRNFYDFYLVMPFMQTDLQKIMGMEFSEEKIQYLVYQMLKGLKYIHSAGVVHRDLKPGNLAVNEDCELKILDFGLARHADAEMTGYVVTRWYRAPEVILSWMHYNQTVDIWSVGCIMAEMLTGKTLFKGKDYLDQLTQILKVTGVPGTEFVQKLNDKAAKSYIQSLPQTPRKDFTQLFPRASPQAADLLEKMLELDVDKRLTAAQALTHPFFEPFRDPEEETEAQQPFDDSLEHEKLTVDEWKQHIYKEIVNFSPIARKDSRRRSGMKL

T1 sequence (P00533 25-1210): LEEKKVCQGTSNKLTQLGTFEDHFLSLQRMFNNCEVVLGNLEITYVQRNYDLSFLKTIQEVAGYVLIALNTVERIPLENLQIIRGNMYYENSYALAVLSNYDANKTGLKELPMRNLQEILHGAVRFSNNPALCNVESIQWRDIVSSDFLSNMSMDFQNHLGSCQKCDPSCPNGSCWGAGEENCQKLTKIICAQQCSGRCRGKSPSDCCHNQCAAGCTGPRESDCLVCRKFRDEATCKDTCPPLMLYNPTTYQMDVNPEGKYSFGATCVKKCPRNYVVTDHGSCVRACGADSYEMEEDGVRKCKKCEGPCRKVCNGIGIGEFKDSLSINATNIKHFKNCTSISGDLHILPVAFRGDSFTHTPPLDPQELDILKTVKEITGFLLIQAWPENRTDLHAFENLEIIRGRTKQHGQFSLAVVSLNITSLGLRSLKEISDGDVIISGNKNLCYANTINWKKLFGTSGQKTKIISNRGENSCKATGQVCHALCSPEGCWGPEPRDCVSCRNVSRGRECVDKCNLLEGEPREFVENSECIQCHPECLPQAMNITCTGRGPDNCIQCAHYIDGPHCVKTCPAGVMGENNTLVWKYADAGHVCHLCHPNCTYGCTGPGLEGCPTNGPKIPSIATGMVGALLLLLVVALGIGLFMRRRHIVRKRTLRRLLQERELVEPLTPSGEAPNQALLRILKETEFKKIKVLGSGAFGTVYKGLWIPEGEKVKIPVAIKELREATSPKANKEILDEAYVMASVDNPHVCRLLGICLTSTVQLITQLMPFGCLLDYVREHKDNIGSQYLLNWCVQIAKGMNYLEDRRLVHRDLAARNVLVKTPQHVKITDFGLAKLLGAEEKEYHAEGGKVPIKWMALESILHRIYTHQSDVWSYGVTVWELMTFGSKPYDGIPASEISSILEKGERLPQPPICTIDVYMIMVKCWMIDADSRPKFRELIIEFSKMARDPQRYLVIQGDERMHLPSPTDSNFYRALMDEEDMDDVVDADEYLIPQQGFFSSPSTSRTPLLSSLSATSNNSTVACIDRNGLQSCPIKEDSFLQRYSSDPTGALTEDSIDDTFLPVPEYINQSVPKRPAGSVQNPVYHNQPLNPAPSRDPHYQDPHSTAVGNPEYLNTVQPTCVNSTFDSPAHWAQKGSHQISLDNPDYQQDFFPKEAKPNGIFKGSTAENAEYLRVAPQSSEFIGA
T2 sequence (P28482 whole entry): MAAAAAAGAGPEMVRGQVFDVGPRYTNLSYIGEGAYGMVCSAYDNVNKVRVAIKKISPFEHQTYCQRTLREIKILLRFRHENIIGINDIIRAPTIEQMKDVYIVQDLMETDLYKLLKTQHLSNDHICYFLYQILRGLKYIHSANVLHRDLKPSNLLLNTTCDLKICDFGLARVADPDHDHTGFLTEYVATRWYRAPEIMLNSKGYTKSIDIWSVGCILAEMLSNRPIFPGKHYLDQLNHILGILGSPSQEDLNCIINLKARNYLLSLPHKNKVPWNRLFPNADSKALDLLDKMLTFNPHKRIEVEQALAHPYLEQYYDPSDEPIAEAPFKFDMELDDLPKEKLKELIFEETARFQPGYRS

Compound	RA @ 1000nM [1] [%]	RA @ 10000nM [1] [%]	RA @ 1000nM [2] [%]	RA @ 10000nM [2] [%]	RA @ 1000nM [3] [%]	RA @ 10000nM [3] [%]	RA @ 1000nM [4] [%]	RA @ 10000nM [4] [%]	RA @ 1000nM [5] [%]	RA @ 10000nM [5] [%]	RA @ 1000nM [6] [%]	RA @ 10000nM [6] [%]	RA @ 1000nM [7] [%]	RA @ 10000nM [7] [%]	RA @ 1000nM [8] [%]	RA @ 10000nM [8] [%]	RA @ 1000nM [9] [%]	RA @ 10000nM [9] [%]	RA @ 1000nM [10] [%]	RA @ 10000nM [10] [%]	other results
CC(C)Cn1ncc2cc(Cc3ccc(F)cc3F)c(C(=O)NCCN(C)C)cc21 [Compound 94, 5-(2,4-Difluorobenzyl)-N-(2-(dimethylamino)ethyl)-1-isobutyl-1H-indazole-6-carboxamide]	98	69	100	98	98	100	55	6.8	94	100	88	74	77	95	86	65	100	94	93	94	RA @ 1000nM [11]: 97%; RA @ 10000nM [11]: 100%
CN(C)CCNC(=O)c1cc2c(cnn2CC2CCCCC2)cc1Cc1ccc(F)cc1F [Compound 95, 1-(Cyclohexylmethyl)-5-(2,4-difluorobenzyl)-N-(2-(dimethylamino)ethyl)-1H-indazole-6-carboxamide]	100	100	100	100	100	100	48	3.7	96	94	100	87	100	100	94	94	100	93	100	99	RA @ 1000nM [11]: 100%; RA @ 10000nM [11]: 100%
